Measured values published in patent US20210130291A1, “METHODS FOR TREATING DIABETES USING VDAC1 INHIBITORS” (THE NATIONAL INSTITUTE FOR BIOTECHNOLOGY IN THE NEGEV LTD., priority 2016, published 2021).

How the values were obtained:
[1] = tested on: db/db mice; experiment: Oral (gavage) administration of VBIT-4 to db/db mice, blood glucose; type: in vivo, mouse
Method: Next, the effect of orally administered VBIT-4 on blood glucose in db/db mice was examined. VBIT-4 at the indicated doses or vehicle was administered by gavage to db/db mice from the age of 6-11 weeks. Blood was sampled and […] once a week. Blood glucose was measured by a handheld device ContourXt (Bayer) using blood glucose strips.

[2] = tested on: human islet cells; experiment: Cellular reductive capacity (MTS) in human islets; type: cell-based; settings: VDAC1 antibody 10 nM
Method: The reductive capacity of cells was measured either on INS-1 cells or dispersed human islet cells when the INS-1 cells or islets were subjected to 5 or 20 mM glucose for 72 h in the absence or presence of test agents or after down-regulation of VDAC1 and VDAC2 as described elsewhere (35, 40). Measurement of reductive capacity was performed using the MTS reagent kit according to the manufacturer's instructions (Promega). Apoptosis was measured with the Cell Death Kit (Roche Diagnostics), which quantifies the appearance of cytosolic nucleosomes.

[3] = target: VDAC1 (Rattus norvegicus, UniProt Q9Z2L0); experiment: Channel conductance of VDAC1 reconstituted in planar lipid bilayer
VDAC1, sequence (Q9Z2L0 whole entry): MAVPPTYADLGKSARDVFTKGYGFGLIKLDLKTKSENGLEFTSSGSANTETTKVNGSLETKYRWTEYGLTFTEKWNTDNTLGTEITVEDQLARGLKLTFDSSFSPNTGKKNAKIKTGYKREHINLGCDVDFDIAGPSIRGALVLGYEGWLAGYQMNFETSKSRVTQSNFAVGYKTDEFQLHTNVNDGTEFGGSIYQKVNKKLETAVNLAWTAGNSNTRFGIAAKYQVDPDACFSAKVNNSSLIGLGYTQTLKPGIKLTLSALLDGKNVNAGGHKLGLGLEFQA

[4] = tested on: islets of diabetic db/db mice; experiment: ATP content, ATP release and GSIS in islets of diabetic db/db mice; type: cell-based, mouse
Method: 5 weeks old db/db mice and control (C57/bl) (Janvier Laboratory, France), weighing 18-25 g, were used throughout the experiments. They were given a standard pellet diet (B&K) and tap water ad libitum. The experimental procedures were approved by the Ethics Committee for Animal Research at Lund University. Isolation of pancreatic islets was performed by retrograde injection of a collagenase solution via the bile-pancreatic duct and islets were then collected under a stereomicroscope at room temperature.
Human pancreatic islets were collected under a stereomicroscope at room temperature and cultured at 5.5 or 20 mM glucose in the absence or presence of test agents for 72 h. Thereafter the islets were washed and preincubated for 30 min at 37° C. in Krebs Ringer bicarbonate buffer, pH 7.4, supplemented with N-2 hydroxyethylpiperazine-N′-2-ethanesulfonic acid (10 mM), 0.1% bovine serum albumin, and 1 mM glucose. Each incubation vial contained 12 islets in 1.0 ml KRB buffer solution and treated with 95% O2 and 5% CO2 to obtain constant pH and oxygenation. After preincubation, the buffer was changed to a medium containing either 1 mM or 16.7 mM glucose. The islets were then incubated for 1 h at 37° C. in a metabolic shaker (30 cycles per min). Immediately after incubation an aliquot of the medium was removed for analysis of insulin and the islets were incubated in acid-ethanol for insulin content determination by radioimmunoassay.
ATP release from isolated mouse or human islets or from INS-1 cells after transfection with mitochondrial targeted VDAC1 (mtVDAC1) or plasma membrane targeted VDAC1 (plVDAC1) plasmids was determined using a luminometric assay kit according to manufacturer's recommendation (Biovision). After incubation of islets (50/vial) or INS-1 cells for 60 min, an aliquot of the media was removed for subsequent measurements of released ATP. Then the islets or INS-1 cells were washed 3 times and the lysates were used for measurements of ATP and protein contents followed the protocol provided by the vendor.

[5] = tested on: TXNIP; settings: insulin-secreting cells and endothelial cells (Shaked 2011; Li 2015); cited from earlier work
[6] = target: T1, plVDAC1 (Mus musculus, UniProt Q60932); experiment: Whole-cell patch-clamp membrane conductance in INS-1 cells; type: cell-based; settings: superfusion with metformin 20 μM (FIG. 4f)
T1 construct: expressed in transfected cells; host or cells: INS-1 832/13 cells (rat insulinoma), transient transfection; plasmid a gift from Dr. R. Buettner
T1 sequence (Q60932 whole entry, the tested form may be a part): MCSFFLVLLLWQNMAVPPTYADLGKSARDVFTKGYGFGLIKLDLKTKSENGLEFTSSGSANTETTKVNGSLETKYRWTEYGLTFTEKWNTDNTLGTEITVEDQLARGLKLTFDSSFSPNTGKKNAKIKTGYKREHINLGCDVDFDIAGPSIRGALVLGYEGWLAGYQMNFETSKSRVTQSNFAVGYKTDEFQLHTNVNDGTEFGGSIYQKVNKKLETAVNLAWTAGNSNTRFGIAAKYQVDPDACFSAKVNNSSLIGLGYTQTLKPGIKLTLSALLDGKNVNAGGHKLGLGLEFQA
Method: Whole-cell currents in INS-1 832/13 cells were evoked and recorded by EPC10 amplifier and Pulse software (HEKA, Lambrecht/Pfalz, Germany) as previously described (Buda P. et al. 2013. PLoS One. 8(5):e64462) with the temperature maintained at 32° C. The cells were continuously perfused with extracellular solution containing 118 mM NaCl, 20 mM tetraethylammonium chloride, 5.6 mM KCl, 2.6 mM CaCl2), 1.2 mM MgCl2, 5 mM HEPES and 5 mM glucose (pH 7.4 with NaOH) in the presence of 100 μM tolbutamide (T0891, Sigma-Aldrich). The intracellular solution consisted of 125 mM Cs-glutamate, 10 mM CsCl, 10 mM NaCl, 1 mM MgCl2, 5 mM HEPES, 3 mM Mg-ATP, 0.1 mM cAMP and 0.05 mM EGTA (pH 7.2 with CsOH). […] Conductance was measured by applying 200-ms voltage ramps from −90 mV to −50 mV. […] Data presented are from […] after the addition when steady-state was reached.
Conductance measurements were performed after at least 5 minutes exposure, and the cell dish was replaced no later than after 1 hour of perfusion. No wash-out experiments were performed in this experiment.

Structure (SMILES)	blood glucose ([1]; daily gavage for 5 weeks, age 6-11 weeks (FIG. 8))	reduction of blood glucose concentration ([1]; gavage, 10 mg/Kg body weight, 5 weeks)	cellular reductive capacity (metabolism) in T2D islets ([2]; metformin 20 μM (FIG. 6h))	cellular reductive capacity after culture at 5 mM glucose ([2]; human islets, metformin 20 μM (FIG. 6g))	conductance of VDAC1 reconstituted into a planar lipid bilayer ([3]; metformin 30 μM, 10-30 min after addition (FIG. 4g))	inhibition at 30 µM ([3]; read-out: inhibition of channel conductance)	insulin secretion in low glucose ([4]; islets from hyperglycemic db/db mice (FIG. 6c))	cellular ATP levels ([4]; islets from hyperglycemic db/db mice, acute addition 1 h, VDAC1 antibody 10 nM, metformin 20 μM (FIG. 6a))	ATP release ([4]; islets from hyperglycemic db/db mice, acute addition 1 h, VDAC1 antibody 10 nM, metformin 20 μM (FIG. 6b))	insulin secretion at 16.7 mM glucose ([4]; islets from hyperglycemic db/db mice, compared to control (FIG. 6c))	TXNIP activation by high glucose concentrations [5]	elevated conductance in plVDAC1-transformed cells [6]	membrane currents in control INS-1 cells [6]
O=C(CC(CO)N1CCN(c2ccc(OC(F)(F)F)cc2)CC1)Nc1ccc(Cl)cc1 (racemic) [VBIT-4, N-(4-chlorophenyl)-4-hydroxy-3-(4-(4-(trifluoromethoxy)phenyl)-piperazin-1-yl)butanamide]	reduced blood glucose	the reduction was significant along the entire trail period	–	–	–	–	–	–	–	–	–	–	–
CN(C)C(=N)N=C(N)N [metformin]	–	–	markedly improved metabolism	no effect	blocks conductance	50%	no effect	increased its cellular levels	reduced ATP release	increased insulin secretion	inhibits TXNIP activation	abrogating the elevated conductance	did not affect membrane currents
